Where two headings read alike, the source gives them in different places.
Experiments:
HIV-1 strain HTLVIIIB = assay: Inhibition of HIV-1 HTLVIIIB replication in PBMC (p24 antigen EIA); format: cell-based; details: for IC50: HIV-1 HTLVIIIB in human PBMC, p24 on day 7, read-out: IC50 HTLVHIB
Method: (§1) Normal human peripheral blood mononuclear cells (PBMNC) from HIV-negative donors were cultured 72 hours in RPMI 1640 supplemented with 20% (v/v) heat-inactivated fetal bovine serum (FBS), 3% interleukin-2, 2 mM L-glutamine, 25 mM HEPES, 2 g/L NaHCO3, 50 μg/mL gentamicin, and 4 μg/mL phytohemagglutinin prior to exposure to the HIV-1 strain HTLVIIIB. The cells were then infected with virus at a multiplicity of infection (MOI) of 0.1 during a 1-hour adsorption period at 37° C. in a humidified 5% CO2 atm. Subsequently, cells were cultured in 96-well microtiter plates (100 μl/well; 2×10^6 cells/mL) in the presence of various inhibitor concentrations. Aliquots of culture supernatants were removed from the wells on the 7th day after infection for p24 antigen assays. The applied p24 enzyme immunoassay (EIA) was the unmodified kinetic assay commercially available from Coulter Corporation/Immunotech, Inc. (Westbrooke, Me.), which utilizes a murine mAb to HIV core protein coated onto microwell strips to which the antigen present in the test culture supernatant samples binds. Percent viral inhibition was calculated by comparing the p24 values from the test substance-treated infected cells with p24 values from untreated infected cells (i.e., virus controls). The effects of various treatments on cell viability were also examined and the results were expressed as the cytotoxic concentration (CC)50 values. The selectivity indices (SI) were calculated using the formula: SI=CC50/IC50.

[1] = system: NNRTI-resistant HIV-1 strain A17 with a Y181C mutation in RT; assay: microbe, parasite or virus in culture; format: cell-based; details: for effective concentrations against NNRTI-resistant HIV-1 isolate A17 (in words): both NNRTI-resistant isolates
[2] = system: A17 variant with Y181C plus K103N mutations in RT; assay: microbe, parasite or virus in culture; format: cell-based, HIV-1; details: for effective concentrations against NNRTI-resistant HIV-1 isolate A17 variant (in words): both NNRTI-resistant isolates
[3] = system: human peripheral blood mononuclear cells (PBMC); assay: Cell viability / cytotoxicity in PBMC; format: cell-based; details: for CC50: cytotoxic concentration, PBMC viability
Method: as §1

[4] = Human immunodeficiency virus 1, 168 h
[5] = Human immunodeficiency virus 1, read-out: IC50 A17
[6] = Human immunodeficiency virus 1, read-out: IC50 A17 variant
[7] = NNRTI-resistant HIV, A17 (Y181C), read-out: IC50 A17
[8] = NNRTI-resistant HIV, A17 variant (Y181C plus K103N), read-out: IC50 A17 variant

| Compound | IC50 values, inhibition of HIV-1 replication (in words) (HIV-1 strain HTLVIIIB) | IC50 (HIV-1 strain HTLVIIIB) [nM] | CC50 [3] [µM] | IC50 [2, 8] [µM] | further results |
| --- | --- | --- | --- | --- | --- |
| CC(C)Nc1cccnc1N1CCN(C(=O)c2cc3cc(NS(C)(=O)=O)ccc3[nH]2)CC1 [Delavirdine, reference compound] | – | – | – | – | IC50 (HIV-1 strain HTLVIIIB; [4]): 9 nM; IC50 [1, 5]: 50 µM; IC50 [2, 6]: > 100 µM |
| Cc1ccnc2c1NC(=O)c1cccnc1N2C1CC1 [Nevirapine, reference compound] | – | – | – | – | IC50 (HIV-1 strain HTLVIIIB; [4]): 34 nM; IC50 [1, 5]: > 100 µM; IC50 [2, 6]: > 100 µM |
| N-[1-(1-Adamantyl)methyl]-N′-[2-(thiazolyl)]thiourea [Compound 5] | subnanomolar | < 1 | 40 | – | IC50 [1, 7]: 0.6 µM; effective concentrations against NNRTI-resistant HIV-1 isolate A17 (in words) [1]: nanomolar to low micromolar; effective concentrations against NNRTI-resistant HIV-1 isolate A17 variant (in words) [2]: nanomolar to low micromolar |
| N-[1-(1-Furoylmethyl)]-N′-[2-(thiazolyl)]thiourea [Compound 6] | subnanomolar | < 1 | > 100 | 0.6 | effective concentrations against NNRTI-resistant HIV-1 isolate A17 (in words) [1]: nanomolar to low micromolar; effective concentrations against NNRTI-resistant HIV-1 isolate A17 variant (in words) [2]: nanomolar to low micromolar; toxicity to PBMC (in words) [3]: minimally toxic |
| N-[2-(1-Cyclohexenylethyl)]-N′-[2-(thiazolyl)]thiourea [Compound 2] | – | 7 | 4 | > 100 | IC50 [1, 7]: 0.9 µM |
| N-[2-(2-Indole)ethyl]-N′-[2-(thiazolyl)]thiourea [Compound 8] | subnanomolar | < 1 | 28 | – | effective concentrations against NNRTI-resistant HIV-1 isolate A17 (in words) [1]: nanomolar to low micromolar; effective concentrations against NNRTI-resistant HIV-1 isolate A17 variant (in words) [2]: nanomolar to low micromolar |
| N-[2-(2-Piperdine)ethyl]-N′-[2-(thiazolyl)]thiourea [Compound 9] | – | > 100000 | – | – | – |
| N-[2-(2-Thiophenylethyl)]-N′-[2-(thiazolyl)]thiourea [Compound 1] | subnanomolar | < 1 | 71 | – | IC50 [1, 7]: > 100 µM |
| N-[2-(4-Hydroxyphenyl)ethyl]-N′-[2-(thiazolyl)]thiourea [Compound 10] | – | > 100000 | – | – | – |
| N-[2-(4-Methylphenyl)ethyl]-N′-[2-(thiazolyl)]thiourea [Compound 4] | – | 70 | > 100 | > 100 | – |
| N-[2-(Phenoxyethyl)]-N′-[2-(thiazolyl)]thiourea [Compound 3] | subnanomolar | < 1 | > 100 | > 100 | – |
| N-[2-Pyridylethyl]-N′-[2-(thiazolyl)]thiourea [Compound 11] | – | 1000 | 100 | – | – |
| N-[3-(2-Imidazole)propyl]-N′-[2-(thiazolyl)]thiourea [Compound 7] | subnanomolar | < 1 | 35 | > 100 | IC50 [1, 7]: > 100 µM |
| N-[3-(Pyrrolidinone)propyl]-N′-[2-(thiazolyl)]thiourea [Compound 12] | – | 9000 | 18 | – | – |

From patent US6960606B2, “Adamantyl Thiazole Thioureas” (Parker Hughes Institute, priority 2000, dated 2005)
